This note sets out measurements from patent US11730746B2, “17beta-heterocyclyl-digitalis like compounds for the treatment of heart failure” (priority 2018, dated 2023).

Marks after values point to notes of the source that are not given here.

The target in one data set is T1, dog renal Na,K-ATPase (Canis lupus familiaris, UniProt P50997).
T1 construct: incubated with 0.3 μg of purified dog kidney enzyme; from tissue; host or cells: dog kidney outer medulla
The experiment in a line: Inhibition of dog renal Na,K-ATPase activity (32P-ATP release). The class given is biochemical. On the procedure: Kidneys were sliced and the outer medulla was dissected, pooled and suspended (1 g/10 ml) in a sucrose-histidine solution, containing 250 mM sucrose, 30 mM histidine and 5 mM EDTA, pH 7.2 and homogenized. […] The pellet was suspended in the sucrose-histidine buffer and incubated for 20 min with a sodium-dodecyl-sulphate (SDS) solution dissolved in a gradient buffer, containing 25 mM imidazole and 1 mM EDTA, pH 7.5. […] The pellet was suspended in the gradient buffer.
Increasing concentrations of the standard ouabain, or tested compound, were incubated with 0.3 μg of purified dog kidney enzyme for 10 min at 37° C. in 120 μl final volume of a medium, containing 140 mM NaCl, 3 mM MgCl2, 50 mM Hepes-Tris, 3 mM ATP, pH 7.5. […] The inhibitory activity was expressed as percent of the control samples carried out in the absence of ouabain or tested compound.

Another data set has as its target T2, SERCA2a (Canis lupus familiaris, UniProt O46674).
T2 construct: pre-incubated with 2 μg of microsomes; from tissue; host or cells: dog heart left ventricle, SR microsomes
The experiment in a line: SERCA2a ATPase activity in heart-derived SR microsomes from normal dog. It counts as biochemical. To be noted: for Vmax (SERCA2a ATPase activity): mean ± SD. How it is done: Left ventricle tissues were dissected, homogenized in 4 volumes of 10 mM NaHCO3, pH 7, 1 mM PMSF, 10 μg/ml Aprotinin and Leupeptin and centrifuged at 12,000 g for 15 minutes, as published (Nediani C. et al. J Biol Chem. 1996; 271:19066-73). Supernatants were filtered and centrifuged at 100,000 g for 30 min. Contractile proteins were extracted by suspending the pellets with 0.6 M KCl, 30 mM Histidine, pH 7 and further centrifugation at 100,000 g for 30 min. Final pellets were reconstituted with 0.3 M Sucrose, 30 mM Histidine, pH 7.
SERCA2a activity was measured “in vitro” as ^32P-ATP hydrolysis at different Ca^2+ concentrations (100-4000 nM) in the absence and presence of the tested compounds, as described (Micheletti R. et al. Am J Card 2007; 99:24A-32A). Increasing concentrations of each compound (from 1 to 100 nM) were pre-incubated with 2 μg of microsomes for 5 min at 4° C. in 80 μl of a solution containing 100 mM KCl, 5 mM MgCl2, 1 μM A23187, 20 mM Tris, pH 7.5. Then, 20 μl of 5 mM Tris-ATP containing 50 nCi of ^32P-ATP (3-10 Ci/mmol, Perkin Elmer) were added. The ATP hydrolysis was continued for 15 min at 37° C. and the reaction was stopped by acidification with 100 μl of 20% v/v ice-cold perchloric acid. ^32P was separated by centrifugation with activated charcoal (Norit A, SERVA) and the radioactivity was measured. SERCA2a-dependent activity was identified as the portion of total hydrolytic activity inhibited by 10 μM cyclopiazonic acid (Seidler N W. et al. J Biol Chem. 1989; 264:17816-23).
Dose-response curves were fitted by using a sigmoidal curve fitting software and the maximal velocity (Vmax) activity and the Kd Ca^2+ were calculated (Synergy Software KaleidaGraph 3.6).

Data set [1] has as its system ATPase, Ca++, skeletal muscle, pig. The experiment in a line: Eurofins panel 107480. The class given is biochemical. To be noted: 10 μM.
The next data set has as its target T3, Monoamine Oxidase MAO-B (Homo sapiens, UniProt P27338).
T3 construct: Eurofins 140120
The experiment in a line: Eurofins panel 140120. The class given is biochemical. How it is done:
(§1) Radioligand binding to a panel of receptors was carried out by Eurofins on crude membrane preparations according to published procedures and by using appropriate reference standard (Eurofins, CVie 101 compound code PT #1207859, study #AB76416, quote #68407-1, for Cvie Therapeutics Limited, Taiwan (R.OC.) on Mar. 5, 2017). CVie 101 was tested at the concentration of 10 μM. No significant interaction was documented, except for Sodium Channel, site 2 from rat (cat #279510), where a significant response (≥50%) was noted (Table 7).

Another data set has as its target T4, Peptidase, Renin (Homo sapiens, UniProt P00797).
T4 construct: Eurofins 164610
Kind of data set: Eurofins panel 164610. It counts as biochemical.

The next data set deals with T5, Phosphodiesterase PDE3 (Homo sapiens, UniProt Q14432).
T5 construct: Eurofins 152000
The experiment in a line: Eurofins panel 152000. The class given is biochemical. How it is done:
as §1

For a further data set, the target named is T6, Adenosine A2A (Homo sapiens, UniProt P29274).
T6 construct: Eurofins 200610; host or cells: crude membrane preparation
The experiment in a line: Receptor binding 200610. How it is done:
as §1

The target in the next data set is T7, Adrenergic α2A (Homo sapiens, UniProt P08913).
T7 construct: Eurofins 203630; host or cells: crude membrane preparation
The experiment in a line: Receptor binding 203630. On the procedure: as §1

The target of the next data set is T8, Adrenergic β2 (Homo sapiens, UniProt P07550).
T8 construct: Eurofins 204110; host or cells: crude membrane preparation
Kind of data set: Receptor binding 204110. How it is done: as §1

In the next data set the test system is Androgen (Testosterone). The experiment in a line: Receptor binding 206000. Also on record: species or system human. The conditions noted are these: 10 μM. On the procedure: as §1
The target in the next data set is T9, Angiotensin AT1 (Homo sapiens, UniProt P30556).
T9 construct: Eurofins 210030; host or cells: crude membrane preparation
Kind of data set: Receptor binding 210030. How it is done:
as §1

Another data set addresses T10, Dopamine D1 (Homo sapiens, UniProt P21728).
T10 construct: Eurofins 219500; host or cells: crude membrane preparation
Kind of data set: Receptor binding 219500. How it is done: as §1

A further data set addresses T11, Dopamine D2s (Homo sapiens, UniProt P14416).
T11 construct: Eurofins 219700; host or cells: crude membrane preparation
The experiment in a line: Receptor binding 219700. How it is done:
as §1

The next data set addresses T12, Estrogen ERβ (Homo sapiens, UniProt Q92731).
T12 construct: Eurofins (contract assay) 226050
The experiment in a line: Receptor binding 226050. On the procedure: as §1

The subject of the next data set is GABAA, Muscimol, Central. The experiment in a line: Receptor binding 226500. The arrangement: species or system rat. The conditions noted are these: 10 μM. How it is done:
as §1

The test system of a further data set is Nicotinic Acetylcholine. The experiment in a line: Receptor binding 258590. To be noted: 10 μM. Also on record: species or system human. How it is done: as §1
A further data set addresses T13, hERG potassium channel (Homo sapiens, UniProt Q12809).
T13 construct: Eurofins (contract assay) 265900
Kind of data set: Receptor binding 265900. To be noted: crude membrane preparations. On the procedure:
as §1

A further data set concerns the target T14, Progesterone PR-B (Homo sapiens, UniProt P06401).
T14 construct: Eurofins (contract assay) 299005
Kind of data set: Receptor binding 299005. How it is done:
as §1

Data set [2] has as its target T15, Transporter, Norepinephrine (NET) (Homo sapiens, UniProt P23975).
T15 construct: Eurofins (contract assay) 204410
The experiment in a line: Receptor binding 204410. How it is done:
as §1

T2 sequence (O46674 whole entry): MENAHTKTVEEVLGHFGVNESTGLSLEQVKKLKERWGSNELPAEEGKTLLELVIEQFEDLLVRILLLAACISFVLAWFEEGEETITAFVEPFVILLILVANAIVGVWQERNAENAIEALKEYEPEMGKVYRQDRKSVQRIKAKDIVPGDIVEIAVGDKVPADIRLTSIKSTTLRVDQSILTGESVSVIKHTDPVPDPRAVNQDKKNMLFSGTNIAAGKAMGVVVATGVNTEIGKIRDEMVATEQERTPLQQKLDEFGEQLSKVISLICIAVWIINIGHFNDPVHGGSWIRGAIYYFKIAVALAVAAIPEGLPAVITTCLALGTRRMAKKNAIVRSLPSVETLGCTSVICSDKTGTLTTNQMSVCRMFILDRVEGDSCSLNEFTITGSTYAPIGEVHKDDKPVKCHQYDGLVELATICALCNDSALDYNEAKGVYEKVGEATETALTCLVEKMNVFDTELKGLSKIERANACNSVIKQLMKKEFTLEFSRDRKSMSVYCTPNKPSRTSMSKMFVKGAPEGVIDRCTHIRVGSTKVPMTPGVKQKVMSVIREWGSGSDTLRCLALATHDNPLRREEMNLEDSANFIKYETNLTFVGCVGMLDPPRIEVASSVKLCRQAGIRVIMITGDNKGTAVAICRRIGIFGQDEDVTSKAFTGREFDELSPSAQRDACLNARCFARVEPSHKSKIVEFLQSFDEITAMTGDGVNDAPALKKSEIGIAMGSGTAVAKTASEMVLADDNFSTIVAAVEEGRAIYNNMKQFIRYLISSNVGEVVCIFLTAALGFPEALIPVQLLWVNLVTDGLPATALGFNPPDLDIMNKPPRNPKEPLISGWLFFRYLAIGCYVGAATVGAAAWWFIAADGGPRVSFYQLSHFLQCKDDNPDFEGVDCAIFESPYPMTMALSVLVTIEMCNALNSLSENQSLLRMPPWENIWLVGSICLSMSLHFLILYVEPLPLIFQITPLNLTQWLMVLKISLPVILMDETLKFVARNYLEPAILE
T8 sequence (P07550 whole entry): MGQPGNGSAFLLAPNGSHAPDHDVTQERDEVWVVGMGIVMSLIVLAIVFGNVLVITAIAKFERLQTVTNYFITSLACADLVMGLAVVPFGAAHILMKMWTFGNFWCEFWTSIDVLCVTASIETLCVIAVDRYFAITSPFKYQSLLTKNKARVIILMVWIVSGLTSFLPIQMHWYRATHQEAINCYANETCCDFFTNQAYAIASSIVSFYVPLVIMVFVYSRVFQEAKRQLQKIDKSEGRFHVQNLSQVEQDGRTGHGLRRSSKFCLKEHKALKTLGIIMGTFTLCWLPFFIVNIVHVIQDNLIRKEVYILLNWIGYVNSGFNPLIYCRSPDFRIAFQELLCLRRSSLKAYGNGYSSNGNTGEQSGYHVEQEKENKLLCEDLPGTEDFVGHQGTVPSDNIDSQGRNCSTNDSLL
T14 sequence (P06401 whole entry): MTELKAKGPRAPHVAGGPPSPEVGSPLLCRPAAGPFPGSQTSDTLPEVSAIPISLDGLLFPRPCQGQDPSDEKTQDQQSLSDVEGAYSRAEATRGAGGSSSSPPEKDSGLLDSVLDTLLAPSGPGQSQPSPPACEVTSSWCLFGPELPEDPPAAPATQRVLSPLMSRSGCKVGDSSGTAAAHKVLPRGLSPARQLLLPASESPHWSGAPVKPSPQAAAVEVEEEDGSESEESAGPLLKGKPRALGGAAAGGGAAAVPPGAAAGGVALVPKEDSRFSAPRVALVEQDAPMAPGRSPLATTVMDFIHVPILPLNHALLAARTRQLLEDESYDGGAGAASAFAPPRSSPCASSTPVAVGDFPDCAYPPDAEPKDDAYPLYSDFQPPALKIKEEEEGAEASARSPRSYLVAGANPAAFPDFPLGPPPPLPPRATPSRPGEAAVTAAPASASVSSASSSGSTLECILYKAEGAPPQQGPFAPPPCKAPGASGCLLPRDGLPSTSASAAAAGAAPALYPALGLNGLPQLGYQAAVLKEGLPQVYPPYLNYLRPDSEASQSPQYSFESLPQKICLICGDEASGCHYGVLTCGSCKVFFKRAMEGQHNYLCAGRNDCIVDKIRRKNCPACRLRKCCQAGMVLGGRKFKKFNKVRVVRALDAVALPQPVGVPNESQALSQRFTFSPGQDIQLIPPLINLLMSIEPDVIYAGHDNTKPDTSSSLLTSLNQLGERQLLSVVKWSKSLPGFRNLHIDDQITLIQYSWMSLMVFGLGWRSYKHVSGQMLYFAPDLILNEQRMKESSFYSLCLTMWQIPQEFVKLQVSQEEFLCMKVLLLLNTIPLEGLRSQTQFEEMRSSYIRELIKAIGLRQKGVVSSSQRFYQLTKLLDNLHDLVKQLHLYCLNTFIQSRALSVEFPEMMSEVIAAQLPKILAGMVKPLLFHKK
T11 sequence (P14416 1-414 isoform P14416-2): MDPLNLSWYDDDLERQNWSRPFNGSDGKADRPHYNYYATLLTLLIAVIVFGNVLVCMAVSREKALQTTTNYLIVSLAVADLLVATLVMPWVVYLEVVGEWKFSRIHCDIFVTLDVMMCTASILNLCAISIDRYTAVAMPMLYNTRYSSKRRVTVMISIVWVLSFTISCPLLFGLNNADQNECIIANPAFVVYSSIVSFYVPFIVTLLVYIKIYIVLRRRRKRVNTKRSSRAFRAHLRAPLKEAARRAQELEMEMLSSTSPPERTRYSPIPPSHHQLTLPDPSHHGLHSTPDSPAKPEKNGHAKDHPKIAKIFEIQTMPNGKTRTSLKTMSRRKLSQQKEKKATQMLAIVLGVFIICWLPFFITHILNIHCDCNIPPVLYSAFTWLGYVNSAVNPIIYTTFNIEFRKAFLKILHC
T4 sequence (P00797 67-406): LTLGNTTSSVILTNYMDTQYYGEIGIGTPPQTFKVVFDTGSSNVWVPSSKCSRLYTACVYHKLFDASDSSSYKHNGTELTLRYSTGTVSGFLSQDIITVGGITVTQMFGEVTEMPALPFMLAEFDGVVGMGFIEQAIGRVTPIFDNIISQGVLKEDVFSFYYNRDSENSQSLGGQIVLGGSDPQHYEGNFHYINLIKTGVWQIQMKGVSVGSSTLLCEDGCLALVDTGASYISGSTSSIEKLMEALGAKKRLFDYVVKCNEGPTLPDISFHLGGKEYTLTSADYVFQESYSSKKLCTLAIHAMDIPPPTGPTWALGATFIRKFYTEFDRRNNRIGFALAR
T13 sequence (Q12809 whole entry): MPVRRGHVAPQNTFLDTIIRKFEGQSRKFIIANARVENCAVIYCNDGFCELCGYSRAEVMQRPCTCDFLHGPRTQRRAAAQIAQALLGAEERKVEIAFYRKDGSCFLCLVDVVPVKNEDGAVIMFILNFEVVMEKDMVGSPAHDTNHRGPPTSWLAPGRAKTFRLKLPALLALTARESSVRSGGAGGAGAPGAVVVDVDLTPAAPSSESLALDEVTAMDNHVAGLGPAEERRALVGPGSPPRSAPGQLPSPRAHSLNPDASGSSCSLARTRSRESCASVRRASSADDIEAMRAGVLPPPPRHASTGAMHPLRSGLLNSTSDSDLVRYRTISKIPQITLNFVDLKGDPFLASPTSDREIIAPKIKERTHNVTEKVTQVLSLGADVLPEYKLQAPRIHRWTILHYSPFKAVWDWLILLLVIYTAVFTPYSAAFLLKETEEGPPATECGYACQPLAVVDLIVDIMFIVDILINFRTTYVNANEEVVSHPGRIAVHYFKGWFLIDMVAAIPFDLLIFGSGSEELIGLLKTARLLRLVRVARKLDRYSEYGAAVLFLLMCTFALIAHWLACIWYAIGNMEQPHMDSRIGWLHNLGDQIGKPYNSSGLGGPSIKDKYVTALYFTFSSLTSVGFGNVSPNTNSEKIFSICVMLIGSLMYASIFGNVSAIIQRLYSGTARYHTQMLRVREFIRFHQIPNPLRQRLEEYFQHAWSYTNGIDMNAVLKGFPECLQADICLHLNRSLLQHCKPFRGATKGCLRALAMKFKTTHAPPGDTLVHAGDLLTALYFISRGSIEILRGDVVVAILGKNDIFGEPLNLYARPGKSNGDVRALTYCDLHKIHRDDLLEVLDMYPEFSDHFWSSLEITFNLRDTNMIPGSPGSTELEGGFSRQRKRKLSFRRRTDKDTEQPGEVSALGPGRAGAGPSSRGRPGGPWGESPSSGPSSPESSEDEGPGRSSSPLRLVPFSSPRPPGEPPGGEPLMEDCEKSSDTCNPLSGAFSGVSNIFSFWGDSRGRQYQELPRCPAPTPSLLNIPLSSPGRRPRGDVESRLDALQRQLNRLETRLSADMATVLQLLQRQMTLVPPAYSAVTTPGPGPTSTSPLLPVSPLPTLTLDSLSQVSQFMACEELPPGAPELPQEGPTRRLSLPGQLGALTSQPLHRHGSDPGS
T3 sequence (P27338 whole entry): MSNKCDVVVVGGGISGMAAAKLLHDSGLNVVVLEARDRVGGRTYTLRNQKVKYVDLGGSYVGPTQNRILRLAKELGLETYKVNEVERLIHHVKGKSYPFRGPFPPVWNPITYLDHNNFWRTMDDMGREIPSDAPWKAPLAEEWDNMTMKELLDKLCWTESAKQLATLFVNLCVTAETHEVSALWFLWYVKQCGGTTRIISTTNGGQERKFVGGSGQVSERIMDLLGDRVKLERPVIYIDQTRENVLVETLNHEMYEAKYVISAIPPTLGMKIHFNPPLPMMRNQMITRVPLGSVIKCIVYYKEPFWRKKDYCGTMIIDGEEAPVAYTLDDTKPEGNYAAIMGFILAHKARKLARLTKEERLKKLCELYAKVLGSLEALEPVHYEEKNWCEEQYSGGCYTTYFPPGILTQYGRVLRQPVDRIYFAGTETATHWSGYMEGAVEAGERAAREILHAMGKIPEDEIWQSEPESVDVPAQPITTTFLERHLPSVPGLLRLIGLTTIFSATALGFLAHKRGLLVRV

In the case of `C[C@]12CC[C@H](O)C[C@H]1CCC1C2CC[C@]2(C)[C@@H](c3c[nH]cn3)CC[C@]12O` (stereo partly drawn) [CVie 101, 3β-hydroxy-5β-10β-methyl-13β-methyl-14β-hydroxy-17β-(imidazol-4-yl)androstane], at dog renal Na,K-ATPase, the half-maximal inhibitory concentration (IC50) – broadly, the midpoint of a concentration-inhibition curve – is 710 nM. Besides, the “% increase vs Control (SERCA2a Vmax)” value at SERCA2a (compound 10 nM) is on record as 15%*; on SERCA2a (compound 100 nM), 19%*. Also, the “Vmax (SERCA2a ATPase activity)” value at SERCA2a (compound 10 nM) was 2.737 ± 0.336 (n = 7) μmol/min/mg prot; on SERCA2a (compound 100 nM), 2.832 ± 0.198 (n = 7) μmol/min/mg prot. Besides, the “% inhib” value in data set [1] is recorded as 14%; in the data set with Androgen (Testosterone), 1%; with GABAA, Muscimol, Central, −9%; in the data set with Nicotinic Acetylcholine, 2%. Besides, the inhibition – broadly, the drop in the measured response relative to a control, in per cent – at 10 µM at Monoamine Oxidase MAO-B was 4%; against Peptidase, Renin it was 3%; against Phosphodiesterase PDE3, -16%; at Adenosine A2A, 0%; at Adrenergic α2A, -7%; at Adrenergic β2 it was 1%. The inhibition at 10 µM on Angiotensin AT1 was 12%; at Dopamine D1, -5%; on Dopamine D2s it was 4%; at Estrogen ERβ it was 17%; at hERG potassium channel, 4%; on Progesterone PR-B it was 10%. The inhibition at 10 µM in [2] came to 2%.
